Reference: patent publication US5691135A, “Immunoglobulin superantigen binding to gp 120 from HIV” (The Regents of the University of California, priority 1994, dated 1997)
Values joined by “and” are separate entries in the source; they are usually repeats but may differ in a detail not shown here. Identical values can stand only once. “Also recorded” adds a separate entry of the source.

How the values were obtained:
[1] = test system: polyclonal serum IgM binding to gp120 from HIV-1SF2; parameters: species or system human; conditions: for RESIDUAL BINDING TO gp120 (% OF CONTROL), 1.0 μM PEPTIDE / RESIDUAL BINDING TO gp120 (% OF CONTROL), 10.0 μM PEPTIDE: gp120 elisa
[2] = test system: monoclonal IgM HEA binding to gp120; parameters: species or system human; conditions: for RESIDUAL BINDING TO gp120 (% OF CONTROL), 1.0 μM PEPTIDE / RESIDUAL BINDING TO gp120 (% OF CONTROL), 10.0 μM PEPTIDE: gp120 elisa
[3] = test system: monoclonal IgM VIN binding to gp120; parameters: species or system human; conditions: gp120 elisa
[4] = test system: monoclonal IgM RSJ binding to gp120; parameters: species or system human; conditions: gp120 elisa
[5] = test system: monoclonal IgM VNG binding to gp120; parameters: species or system human; conditions: for RESIDUAL BINDING TO gp120 (% OF CONTROL), 1.0 μM PEPTIDE / RESIDUAL BINDING TO gp120 (% OF CONTROL), 10.0 μM PEPTIDE: gp120 elisa
[6] = test system: tonsil T-cells (CD19-, CD3+); type: cell-based, human
[7] = test system: CD19+ tonsil B-cells; type: cell-based, human
[8] = test system: panel of Ig-SAg binding antibodies (polyclonal IgM plus four monoclonal IgM) binding to gp120; parameters: species or system human
[9] = test system: VH3 IgM binding to gp120

Substance | RESIDUAL BINDING TO gp120 (% OF CONTROL), 1.0 μM PEPTIDE [1] | RESIDUAL BINDING TO gp120 (% OF CONTROL), 10.0 μM PEPTIDE [1] | RESIDUAL BINDING TO gp120 (% OF CONTROL), 1.0 μM PEPTIDE [2] | RESIDUAL BINDING TO gp120 (% OF CONTROL), 10.0 μM PEPTIDE [2] | RESIDUAL BINDING TO gp120 (% OF CONTROL), 1.0 μM PEPTIDE [3] | RESIDUAL BINDING TO gp120 (% OF CONTROL), 10.0 μM PEPTIDE [3] | RESIDUAL BINDING TO gp120 (% OF CONTROL), 1.0 μM PEPTIDE [4] | RESIDUAL BINDING TO gp120 (% OF CONTROL), 10.0 μM PEPTIDE [4] | RESIDUAL BINDING TO gp120 (% OF CONTROL), 1.0 μM PEPTIDE [5] | RESIDUAL BINDING TO gp120 (% OF CONTROL), 10.0 μM PEPTIDE [5] | further results
KWNDTLRQIVSKLKEQFKNK [Peptide 1989, gp160 peptide 341-360, HIV-1 MN] | 88.5 ± 3.6 % OF CONTROL | 24.6 ± 6.6 % OF CONTROL | 98.3 ± 0.1 % OF CONTROL | 26.2 ± 0.8 % OF CONTROL | 96.6 ± 6.1 % OF CONTROL | 13.4 ± 1.8 % OF CONTROL |  |  |  |  | 
YTTKNIIGTIRQAHCNISRA [Peptide 1987, gp160 peptide 321-340, HIV-1 MN] |  |  |  |  |  |  | 56.8 ± 0.3 % OF CONTROL | 42.2 ± 3.4 % OF CONTROL |  |  | 
CTRPNYNKRKRIHIGPGRAF [Peptide 1985, gp160 peptide 301-320, HIV-1 MN] |  |  |  |  |  |  |  |  | 27.4 ± 0.5 % OF CONTROL | 24.2 ± 0.1 % OF CONTROL | binding of VNG to peptide [5]: bound; inhibition of polyclonal serum IgM binding to gp120 [1]: does not inhibit
gp120: recombinant gp120 from HIV-1SF2 expressed in CHO cells |  |  |  |  |  |  |  |  |  |  | fraction of T-cell population (CD19-) that bound gp120 [6]: 68% and 65%; fraction of B-cell population (CD19+) that bound gp120 [7]: 4% and 3-6%
GKAMYAPPIEGQIRCSSNIT [Peptide 2008, gp160 peptide 431-450, HIV-1 MN] |  |  |  |  | 108 ± 4.3 % OF CONTROL | 15.7 ± 1.7 % OF CONTROL |  |  |  |  | 
EGTIKGGEMKNCSFNITTSI [Peptide 1934, gp160 peptide 151-170, HIV-1 MN] |  |  |  |  |  |  | 13.9 ± 0.3 % OF CONTROL |  |  |  | 
KGSCKNVSTVQCTHGIRPVV [Peptide 1960, gp160 peptide 241-260, HIV-1 MN] | 19.2 ± 1.0 % OF CONTROL | 11.7 ± 2.3 % OF CONTROL | 11.3 ± 2.5 % OF CONTROL | 6.2 ± 3.0 % OF CONTROL | 6.2 ± 1.3 % OF CONTROL | 5.8 ± 1.3 % OF CONTROL | 10.2 ± 2.4 % OF CONTROL | 4.2 ± 5.0 % OF CONTROL | 58.1 ± 0 % OF CONTROL | 32.3 ± 7.1 % OF CONTROL | peptide binding across all Ig tested [8]: bound to all Ig tested
CRIKQIIMWQKVGKAMYAPPISG [Peptide 1589, gp160 peptide 418-441, HIV-1 IIIB] |  |  |  |  |  |  |  |  |  |  | inhibition of HEA binding to gp120 [2]: inhibited the binding of HEA to gp120
DTEVHNVWATQACVPTDPNP [Peptide 1925, gp160 peptide 61-81, HIV-1 MN] |  |  |  |  |  |  |  |  |  |  | inhibition of gp120 binding to VH3 IgM [9]: neither actin nor the 1925 peptide inhibited
LKCNDKKFSGKGSCKNVSTV [Peptide 1959, gp160 peptide 231-250, HIV-1 MN] | 37.0 ± 4.4 % OF CONTROL | 16.8 ± 8.4 % OF CONTROL | 28.3 ± 3.7 % OF CONTROL | 8.4 ± 5.3 % OF CONTROL | 12.6 ± 1.0 % OF CONTROL | 8.0 ± 0.2 % OF CONTROL | 40.5 ± 8.2 % OF CONTROL | 17.2 ± 1.7 % OF CONTROL | 48.7 ± 0.9 % OF CONTROL | 13.7 ± 3.6 % OF CONTROL | peptide binding across all Ig tested [8]: bound to all Ig tested
thyroglobulin |  |  |  |  |  |  |  |  |  |  | inhibition of gp120 binding to VH3 IgM [9]: inhibited gp120 binding to VH3 IgM
MRVKGIRRNYQHWWGWGTM [Peptide 1919, gp160 peptide, amino acids 1-20, HIV-1 MN] | 17.6 ± 0.2 % OF CONTROL |  | 56.1 ± 3.6 % OF CONTROL | 15.1 ± 2.1 % OF CONTROL | 28.1 ± 5.0 % OF CONTROL | 14.8 ± 2.0 % OF CONTROL | 11.1 ± 1.5 % OF CONTROL | 1.3 ± 0.1 % OF CONTROL | 46.4 ± 20.2 % OF CONTROL | 3.3 ± 1.7 % OF CONTROL | inhibition of IgM binding to gp120 by shared peptides [8]: abolished the binding of IgM to gp120; peptide binding across all Ig tested [8]: bound to all Ig tested; also recorded: bound to all of the monoclonal antibodies as well as to polyclonal serum IgM; inhibition of gp120 binding to VH3 IgM [9]: inhibited gp120 binding to VH3 IgM
actin |  |  |  |  |  |  |  |  |  |  | inhibition of gp120 binding to VH3 IgM [9]: neither actin nor the 1925 peptide inhibited
KQIINMWQEVGKAMYAPPIE [Peptide 2007, gp160 peptide 421-440, HIV-1 MN] | 59.1 ± 0.8 % OF CONTROL | 19.8 ± 5.4 % OF CONTROL | 56.2 ± 4.7 % OF CONTROL | 10.3 ± 0.5 % OF CONTROL | 69.8 ± 4.2 % OF CONTROL | 21.2 ± 1.2 % OF CONTROL | 24.1 ± 0.1 % OF CONTROL | 3.1 ± 0.7 % OF CONTROL |  |  | 
RQAHCNISRAKWNDTLRQIV [Peptide 1988, gp160 peptide 331-350, HIV-1 MN] | 39.9 ± 3.6 % OF CONTROL | 23.7 ± 9.7 % OF CONTROL | 92.8 ± 0.4 % OF CONTROL | 40.8 ± 6.1 % OF CONTROL | 12.4 ± 0.6 % OF CONTROL | 12.2 ± 7.8 % OF CONTROL | 20.3 ± 1.5 % OF CONTROL | 13.5 ± 0.4 % OF CONTROL |  |  | 
TKAKRRVVQREKRAAIGALP [Peptide 2015, gp160 peptide 501-520, HIV-1 MN] | 44.5 ± 5.4 % OF CONTROL | 29.3 ± 5.1 % OF CONTROL |  |  | 23.7 ± 3.4 % OF CONTROL | 6.5 ± 2.0 % OF CONTROL |  |  | 83.0 ± 6.3 % OF CONTROL | 37.7 ± 2.0 % OF CONTROL | 
